We go through 22 compounds from US20250213575A1, “8-HETEROCYCLIC-3-(PHENYLSULFONYL)-[1,2,3]TRIAZOLO[1,5A]QUINAZOLIN-5(4H)-ONE DERIVATIVES AS ANTI-BACTERIALS” (priority 2022, published 2025).

In the experiment the target is AgrA (Staphylococcus aureus, UniProt P0A0I7). Nature of the experiment: cell-based. On the set-up: species or system S. aureus USA300 strain UAMS-1625. As to conditions: for Ratio IC50 (in presence of HSA)/IC50 (in absence of HSA): 40 mg/mL HSA vs without HSA.
The mark [1] stands for this setting: LB medium supplemented with 40 mg/mL human serum albumin.
The mark [2] stands for this setting: IC50 without HSA, LB medium, without HSA.
[3] abbreviates: concentration inhibiting the expression of lacZ, in the absence of HSA or HS.
[4] abbreviates: IC50 at 40 mg/mL HSA, LB medium supplemented with 40 mg/mL human serum albumin.

Marks after values point to notes of the source that are not given here.

Chain of AgrA (P0A0I7 whole entry): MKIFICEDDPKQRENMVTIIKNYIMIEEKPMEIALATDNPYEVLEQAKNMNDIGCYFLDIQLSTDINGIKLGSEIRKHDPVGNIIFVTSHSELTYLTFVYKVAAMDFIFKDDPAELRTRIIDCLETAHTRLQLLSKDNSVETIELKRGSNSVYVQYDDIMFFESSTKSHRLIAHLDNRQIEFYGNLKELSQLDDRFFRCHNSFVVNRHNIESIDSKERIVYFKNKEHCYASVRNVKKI

Consider “3-(2,4-dimethylbenzenesulfonyl)-8-(piperazin-1-yl)-4H,5H-[1,2,3]triazolo[1,5-a]quinazolin-5-one [Compound 23]”, for which the “Ratio IC50 (in presence of HSA)/IC50 (in absence of HSA)” value (shortened to “Ratio IC50 (in presence of HSA)/IC50”) is “+++ (ratio ≤ 25)”. For the same compound, the “IC50 at 40 mg/mL HSA” value under setting [1] is listed as “++ (10 μg/mL < IC50 ≤ 50 μg/mL)”. The “IC50 without HSA” value (LB medium, without HSA) is given as “+++ (IC50 ≤ 1 μg/mL)”.

Take `Cc1ccc(S(=O)(=O)c2nnn3c2[nH]c(=O)c2cc(O)ccc23)c(C)c1` [46 (WO 2020/109350), reference compound]: the concentration for half-maximal inhibition (IC50) (IC50 at 40 mg/mL HSA (cells marked *), marked *: activity in presence of 50% of human serum, not determined in 40 mg/mL HSA) was more than 135 µM; the IC50 under setting [2] was less than 2.7 µM; the IC50 under setting [3] is less than 2.7 µM. Moreover, the “Ratio (cells marked *)” value (calculated based on activity in presence of 50% of human serum) was “+* (ratio > 125)”.

As for `Cc1ccc(S(=O)(=O)c2nnn3c2[nH]c(=O)c2ccc(N4CCOC5(CNC5)C4)cc23)c(C)c1` [Compound 9, 3-(2,4-dimethylbenzenesulfonyl)-8-{5-oxa-2,8-diazaspiro[3.5]nonan-8-yl}-4H,5H-[1,2,3]triazolo[1,5-a]quinazolin-5-one], the “Ratio IC50 (in presence of HSA)/IC50” value is reported as “+++ (ratio ≤ 25)”. Moreover, the IC50 under setting [4] lay within 20.8 to 104 µM. Under setting [2], the IC50 lay within 2.08 to 10.4 µM.

As for `Cc1ccc(S(=O)(=O)c2nnn3c2[nH]c(=O)c2ccc(N4CCN(C5CC5)CC4)cc23)c(C)c1` [Compound 60, 8-(4-cyclopropylpiperazin-1-yl)-3-(2,4-dimethylbenzenesulfonyl)-4H,5H-[1,2,3]triazolo[1,5-a]quinazolin-5-one], the “Ratio IC50 (in presence of HSA)/IC50” value is reported as “++ (ratio ≤ 125)”. Moreover, the IC50 under setting [4] was in the range of 20.9 to 104 µM. The same compound registered a 50% inhibitory concentration (IC50) under setting [2] of less than 2.09 µM.

As to `Cc1ccc(S(=O)(=O)c2nnn3c2[nH]c(=O)c2ccc(N4CCN(C)C(=O)C4)cc23)c(C)c1` [Compound 53, 4-[3-(2,4-dimethylbenzenesulfonyl)-5-oxo-4H,5H-[1,2,3]triazolo[1,5-a]quinazolin-8-yl]-1-methylpiperazin-2-one], the “Ratio IC50 (in presence of HSA)/IC50” value was “++ (ratio ≤ 125)”. Also, under setting [4], the IC50 was in the range of 21.4 to 107 µM. For the same compound, the IC50 under setting [2] was less than 2.14 µM.

As to `Cc1ccc(S(=O)(=O)c2nnn3c2[nH]c(=O)c2ccc(N4CCN(CC(F)(F)F)CC4)cc23)c(C)c1` [Compound 51, 3-(2,4-dimethylbenzenesulfonyl)-8-[4-(2,2,2-trifluoroethyl)piperazin-1-yl]-4H,5H-[1,2,3]triazolo[1,5-a]quinazolin-5-one], the “Ratio IC50 (in presence of HSA)/IC50” value was “++ (ratio ≤ 125)”. Besides, under setting [4], the IC50 lay within 19.2 to 96.1 µM. The same compound yielded an IC50 under setting [2] of less than 1.92 µM.

With `Cc1ccc(S(=O)(=O)c2nnn3c2[nH]c(=O)c2ccc(N4CCN(C(=O)C(C)C)CC4)cc23)c(C)c1` [Compound 52, 3-(2,4-dimethylbenzenesulfonyl)-8-[4-(2-methylpropanoyl)piperazin-1-yl]-4H,5H-[1,2,3]triazolo[1,5-a]quinazolin-5-one], the “Ratio IC50 (in presence of HSA)/IC50” value is listed as “+++ (ratio ≤ 25)”. In addition, under setting [4], the 50% inhibitory concentration (IC50) was 19.7 to 98.3 µM. The compound further returned an IC50 under setting [2] of less than 1.97 µM.

Turning to `Cc1ccc(S(=O)(=O)c2nnn3c2[nH]c(=O)c2ccc(N4CCC(N(C)C)CC4)cc23)c(C)c1` [Compound 32, 8-[4-(dimethylamino)piperidin-1-yl]-3-(2,4-dimethylbenzenesulfonyl)-4H,5H-[1,2,3]triazolo[1,5-a]quinazolin-5-one], the “Ratio IC50 (in presence of HSA)/IC50” value was “+++ (ratio ≤ 25)”. Moreover, under setting [4], the IC50 fell in the range of 20.8 to 104 µM. This compound also returned an IC50 under setting [2] of 2.08 to 10.4 µM.

For `Cc1ccc(S(=O)(=O)c2nnn3c2[nH]c(=O)c2ccc(N4CCCOCC4)cc23)c(C)c1` [Compound 48, 3-(2,4-dimethylbenzenesulfonyl)-8-(1,4-oxazepan-4-yl)-4H,5H-[1,2,3]triazolo[1,5-a]quinazolin-5-one], the “Ratio IC50 (in presence of HSA)/IC50” value is reported as “++ (ratio ≤ 125)”. For the same compound, the IC50 under setting [4] was 22 to 110 µM. Also, under setting [2], the IC50 is less than 2.2 µM.

Regarding `Cc1ccc(S(=O)(=O)c2nnn3c2[nH]c(=O)c2ccc(N4CCC5(CNCCO5)C4)cc23)c(C)c1` (stereo not drawn) [Compound 7, 3-(2,4-dimethylbenzenesulfonyl)-8-{6-oxa-2,9-diazaspiro[4.5]decan-2-yl}-4H,5H-[1,2,3]triazolo[1,5-a]quinazolin-5-one], the “Ratio IC50 (in presence of HSA)/IC50” value is given as “+++ (ratio ≤ 25)”. The same compound showed an IC50 under setting [4] of less than 20.2 µM. For the same compound, under setting [2], the 50% inhibitory concentration (IC50) is less than 2.02 µM.

As to `Cc1ccc(S(=O)(=O)c2nnn3c2[nH]c(=O)c2ccc(N4CCN5CCC[C@@H]5C4)cc23)c(C)c1` [Compound 38, 8-[(8aR)-octahydropyrrolo[1,2-a]pyrazin-2-yl]-3-(2,4-dimethylbenzenesulfonyl)-4H,5H-[1,2,3]triazolo[1,5-a]quinazolin-5-one], the “Ratio IC50 (in presence of HSA)/IC50” value is recorded as “+++ (ratio ≤ 25)”. In addition, under setting [4], the IC50 fell in the range of 20.9 to 104 µM. Besides, the half-maximal inhibitory concentration (IC50) under setting [2] was in the range of 2.09 to 10.4 µM.

Consider `Cc1ccc(S(=O)(=O)c2nnn3c2[nH]c(=O)c2ccc(N4C[C@H]5CNC[C@H]5C4)cc23)c(C)c1` [Compound 40, 8-[(3aR,6aS)-octahydropyrrolo[3,4-c]pyrrol-2-yl]-3-(2,4-dimethylbenzenesulfonyl)-4H,5H-[1,2,3]triazolo[1,5-a]quinazolin-5-one], for which the “Ratio IC50 (in presence of HSA)/IC50” value was “+++ (ratio ≤ 25)”. This compound also displayed an IC50 under setting [4] of 21.5 to 108 µM. Under setting [2], the IC50 fell in the range of 2.15 to 10.8 µM.

Regarding `Cc1ccc(S(=O)(=O)c2nnn3c2[nH]c(=O)c2ccc(N4CCN5CCC[C@H]5C4)cc23)c(C)c1` [Compound 37, 8-[(8aS)-octahydropyrrolo[1,2-a]pyrazin-2-yl]-3-(2,4-dimethylbenzenesulfonyl)-4H,5H-[1,2,3]triazolo[1,5-a]quinazolin-5-one], the “Ratio IC50 (in presence of HSA)/IC50” value was “+++ (ratio ≤ 25)”. Moreover, the IC50 under setting [4] lay within 20.9 to 104 µM. This compound also came in with an IC50 under setting [2] of 2.09 to 10.4 µM.

Regarding `Cc1ccc(S(=O)(=O)c2nnn3c2[nH]c(=O)c2ccc(N4CCC4)cc23)c(C)c1` [45 (WO 2020/109350), reference compound], the “Ratio IC50 (in presence of HSA)/IC50” value is listed as “+ (ratio > 125)”. Under setting [4], this compound registered an IC50 of more than 122 µM. Under setting [2], this compound came in with an IC50 of less than 2.44 µM. The IC50 under setting [3] was less than 2.44 µM. Also, the “activity in the presence of HSA (or HS), inactive at highest concentration tested” value (in the presence of HSA (or HS)) is more than 128 µg/mL.

For the compound `Cc1ccc(S(=O)(=O)c2nnn3c2[nH]c(=O)c2ccc(N4CC(C)NC(C)C4)cc23)c(C)c1` (stereo not drawn) [Compound 26, 3-(2,4-dimethylbenzenesulfonyl)-8-(3,5-dimethylpiperazin-1-yl)-4H,5H-[1,2,3]triazolo[1,5-a]quinazolin-5-one], the “Ratio IC50 (in presence of HSA)/IC50” value is given as “+++ (ratio ≤ 25)”. Besides, the half-maximal inhibitory concentration (IC50) under setting [4] was 21.4 to 107 µM. Moreover, the IC50 under setting [2] fell in the range of 2.14 to 10.7 µM.

With `Cc1ccc(S(=O)(=O)c2nnn3c2[nH]c(=O)c2ccc(N4CCN(C5COC5)CC4)cc23)c(C)c1` [Compound 55, 3-(2,4-dimethylbenzenesulfonyl)-8-[4-(oxetan-3-yl)piperazin-1-yl]-4H,5H-[1,2,3]triazolo[1,5-a]quinazolin-5-one], the “Ratio IC50 (in presence of HSA)/IC50” value is “++ (ratio ≤ 125)”. Besides, the IC50 under setting [4] was less than 20.2 µM. The compound further returned an IC50 under setting [2] of less than 2.02 µM.

Regarding `Cc1ccc(S(=O)(=O)c2n[nH]n3c2nc(=O)c2ccc(N4CC5(C4)CC(C)(O)C5)cc23)c(C)c1` [Compound 21, 3-(2,4-dimethylbenzenesulfonyl)-8-{6-hydroxy-6-methyl-2-azaspiro[3.3]heptan-2-yl}-1H,5H-[1,2,3]triazolo[1,5-a]quinazolin-5-one], the “Ratio IC50 (in presence of HSA)/IC50” value is “++ (ratio ≤ 125)”. Under setting [4], this compound displayed an IC50 of 20.9 to 104 µM. The IC50 under setting [2] was less than 2.09 µM.

Turning to `Cc1ccc(S(=O)(=O)c2nnn3c2[nH]c(=O)c2ccc(N4CCC5(CN(C)CCO5)C4)cc23)c(C)c1` (stereo not drawn) [Compound 8, 3-(2,4-dimethylbenzenesulfonyl)-8-{9-methyl-6-oxa-2,9-diazaspiro[4.5]decan-2-yl}-4H,5H-[1,2,3]triazolo[1,5-a]quinazolin-5-one], the “Ratio IC50 (in presence of HSA)/IC50” value was “+++ (ratio ≤ 25)”. For the same compound, the IC50 under setting [4] was 19.7 to 98.3 µM. This compound came in with an IC50 under setting [2] of less than 1.97 µM.

Take “3-(2,4-dimethylbenzenesulfonyl)-8-(4-methanesulfonylpiperazin-1-yl)-4H,5H-[1,2,3]triazolo[1,5-a]quinazolin-5-one [Compound 61]”: the “Ratio IC50 (in presence of HSA)/IC50” value is on record as “++ (ratio ≤ 125)”. Also, the “IC50 at 40 mg/mL HSA” value under setting [1] was “++ (10 μg/mL < IC50 ≤ 50 μg/mL)”. The “IC50 without HSA” value (LB medium, without HSA) is listed as “+++ (IC50 ≤ 1 μg/mL)”.

With `Cc1ccc(S(=O)(=O)c2nnn3c2[nH]c(=O)c2cc(O)c(N4CC5(CN(C)C5)C4)cc23)c(C)c1` [Compound 2, 3-(2,4-dimethylbenzenesulfonyl)-7-hydroxy-8-{6-methyl-2,6-diazaspiro[3.3]heptan-2-yl}-4H,5H-[1,2,3]triazolo[1,5-a]quinazolin-5-one], the “Ratio IC50 (in presence of HSA)/IC50” value was “+++ (ratio ≤ 25)”. Under setting [4], this compound returned an IC50 of less than 20.8 µM. Also, the IC50 under setting [2] was less than 2.08 µM.

As for `Cc1ccc(S(=O)(=O)c2nnn3c2[nH]c(=O)c2ccc(N4CC5(CC(C(=O)O)C5)C4)cc23)c(C)c1` [Compound 63, 2-[3-(2,4-Dimethyl-benzenesulfonyl)-5-oxo-4,5-dihydro-[1,2,3]triazolo[1,5-a]quinazolin-8-yl]-2-aza-spiro[3.3]heptane-6-carboxylic acid], the “Ratio IC50 (in presence of HSA)/IC50” value is on record as “+++ (ratio ≤ 25)”. The same compound came in with an IC50 under setting [4] of less than 20.3 µM. The compound further gave a half-maximal inhibitory concentration (IC50) under setting [2] of less than 2.03 µM.

With `Cc1ccc(S(=O)(=O)c2nnn3c2[nH]c(=O)c2ccc(N4CCN(C)CC4)cc23)c(C)c1` [Compound 22, 3-(2,4-dimethylbenzenesulfonyl)-8-(4-methylpiperazin-1-yl)-4H,5H-[1,2,3]triazolo[1,5-a]quinazolin-5-one], the “Ratio IC50 (in presence of HSA)/IC50” value was “+++ (ratio ≤ 25)”. The IC50 under setting [4] fell in the range of 22.1 to 110 µM. This compound also showed an IC50 under setting [2] of less than 2.21 µM.

For orientation: IC50 means the concentration needed to halve the response being measured.
